Measured values: patent US11262362B2, “2-hydroxyglutarate as a biomarker for chronic hypoxia” (MEMORIAL SLOAN KETTERING CANCER CENTER, priority 2011, dated 2022)

Tested on: SF188 cells
Assay: Viability of glutamine-starved SF188 cells in hypoxia (trypan blue dye exclusion)
Format: cell-based, human
Conditions: 0.5% O2, glutamine-deficient medium supplemented with 7 mM dimethyl α-ketoglutarate, 48 h
Description: In FIG. 2(A), SF188 cells were cultured for 24 h in complete medium equilibrated with either 21% O2 (Normoxia) or 0.5% O2 (Hypoxia). Culture medium was then removed from cells and analyzed for glutamine levels which were compared to the glutamine levels in fresh medium. Data are the mean±SEM of 3 independent experiments. […] Cells were cultured in complete medium equilibrated with 0.5% O2 for 24 h, followed by an additional 48 h at 0.5% O2 in either complete medium (+Gln), glutamine-deficient medium (−Gln), or glutamine-deficient medium supplemented with 7 mM dimethyl α-ketoglutarate (−Gln+αKG). All medium was pre-conditioned in 0.5% O2. Cell viability was determined by trypan blue dye exclusion. Data are the mean and range from 2 independent experiments. FIG. 2(C) depicts a model of the pathways for cit+4 and cit+5 production from [U-^13C]glutamine (glutamine+5). […] Cells were cultured for 24 h as in (A), followed by 4 h of culture in glutamine-deficient medium supplemented with 4 mM [U-^13C]glutamine. ^13C enrichment in cellular citrate was quantitated with GC-MS. […]
SF188 and RCC4 cells were cultured in Dulbecco's Modified Eagle's Medium (DMEM; Invitrogen 11965), 10% fetal bovine serum (FBS; Gemini Biosystems), 100 units/ml Penicillin, 100 ug/ml Streptomycin, 25 mM glucose, and 6 mM L-glutamine. […] Viability was determined by trypan blue exclusion. […]

Compound: COC(=O)CCC(=O)C(=O)OC [dimethyl α-ketoglutarate]
- cell viability upon glutamine withdrawal: rescued the defect in cell viability
